# Test results reported in patent US20210115494A1, “Improved method for measurement of microbial biomass” (Mycometer A/S, priority 2018, published 2021).
# Legend:
# [1] = test system: NAHA activity from Graham-flour; test: NAHA activity assay (4-methylumbelliferyl N-acetyl-β-D-glucosaminide, fluorescence), Graham-flour; format: biochemical; conditions: Graham-flour, 30 min
# Description: (§1) In order to determine NAHA activity in different samples, the technology in WO 98/033934 was employed: A sample containing a dried or freeze dried organism is added to a buffer solution containing 4-Methylumbelliferyl N-acetyl-β-D-glucosaminide in a concentration of 20 μM. The reaction-time is varied depending on the ambient temperature and according to a reaction-time/temperature data sheet previously developed for fungal NAHA activity at various temperatures, and is 30 minutes at 23° C. The resulting fluorescence formed during the reaction time is monitored in a calibrated fluorometer.
# (§2) Experiments were conducted where varying concentrations of AgNO3 was added to an analysis substrate. Furthermore, the experiments where performed on dried or freeze dried materials where both intact and fragmented cells are to be expected to be present.
# (§3) Experiments analogous to those in example 1 were carried out, but instead of using non-specific inhibitors, the effect of different concentrations of DNJNAc on the NAHA activity in various biomass containing samples was investigated.
# [2] = test system: NAHA activity from Ambrosia psilostachya (Rag weed pollen); test: NAHA activity assay, rag weed pollen; format: biochemical; conditions: 30 min
# Description: as §1, §2, §3
# [3] = test system: NAHA activity from Cat dander; test: NAHA activity assay, cat dander; format: biochemical; conditions: 30 min
# Description: as §1, §2, §3
# [4] = test system: NAHA activity from Human skin cells; test: NAHA activity assay, human skin cells; format: biochemical; conditions: 30 min
# Description: as §1, §2, §3
# [5] = test system: NAHA activity from Mugworth pollen; test: NAHA activity assay, mugworth pollen; format: biochemical; conditions: 30 min
# Description: as §1, §2, §3
# [6] = test system: NAHA activity from Lepidoglyphus destructor (Storage mite); test: NAHA activity assay, storage mite; format: biochemical; conditions: for NAHA activity, control without Ag+ = 100%: Lepidoglyphus destructor (Storage mite), 30 min
# Description: as §1, §2, §3
# [7] = test system: NAHA activity from Grass pollen; test: NAHA activity assay, grass pollen; format: biochemical; conditions: for NAHA activity, control without Ag+ = 100%: Grass pollen, 30 min
# Description: as §1, §2, §3
# [8] = test system: NAHA activity from Dermatophagoides pteronyssinus (Dust mite); test: NAHA activity assay, dust mite; format: biochemical; conditions: Dermatophagoides pteronyssinus (Dust mite), 30 min
# Description: as §1, §2, §3
# [9] = test system: NAHA activity from Birch pollen; test: NAHA activity assay, birch pollen; format: biochemical; conditions: Birch pollen, 30 min
# Description: as §1, §2, §3
# [10] = test system: NAHA activity from Aspergillus fumigatus freeze dried; test: NAHA activity assay, Aspergillus fumigatus freeze dried; format: biochemical; conditions: Aspergillus fumigatus freeze dried
# Description: as §1, §2, §3
# [11] = test system: NAHA activity from Aspergillus fumigatus fresh from cultivation; test: NAHA activity assay, Aspergillus fumigatus fresh from cultivation; format: biochemical
# Description: as §1, §2
# [12] = test system: NAHA activity from Acremonium spp.; test: NAHA activity assay, Acremonium spp.; format: biochemical; conditions: Acremonium spp.
# Description: as §1, §2, §3
# [13] = test system: NAHA activity from Penicillium crysogenum; test: NAHA activity assay, Penicillium crysogenum; format: biochemical; conditions: Penicillium crysogenum
# Description: as §1, §2, §3
# [14] = test system: NAHA activity from Cladosporium sphaerospermum; test: NAHA activity assay, Cladosporium sphaerospermum; format: biochemical; conditions: Cladosporium sphaerospermum
# Description: as §1, §2, §3
# [15] = test system: NAHA activity from Fusarium culmorum; test: NAHA activity assay, Fusarium culmorum; format: biochemical
# Description: as §1, §2, §3
# [16] = test system: NAHA activity from Mucor hiemalis; test: NAHA activity assay, Mucor hiemalis; format: biochemical
# Description: as §1, §2, §3
# [17] = test system: NAHA activity from Stachybotrys chartarum; test: NAHA activity assay, Stachybotrys chartarum; format: biochemical
# Description: as §1, §2, §3
# [18] = test system: NAHA activity from Aureobasidium pullulans; test: NAHA activity assay, Aureobasidium pullulans; format: biochemical
# Description: as §1, §2, §3
# [19] = test system: NAHA activity in Alternaria spp.; test: NAHA activity pilot experiment, Alternaria spp.; format: biochemical; conditions: 10 μM
# Description: as §1
# [20] = test system: NAHA activity in Cladosporium spp.; test: NAHA activity pilot experiment, Cladosporium spp.; format: biochemical; conditions: 10 μM
# Description: as §1
# non-fungal NAHA activity = test: NAHA activity assay, non-fungal sources overall; format: biochemical
# Description: as §1, §2, §3
# fungal NAHA activity = test: NAHA activity assay, fungal sources overall; format: biochemical, fungi
# Description: as §1, §2, §3
# The experiments were performed with whole cell/organism cultures rather than purified enzyme, which is normally used in experiments on specific inhibition. It is plausible, though, that the surprising non-specific inhibition effect observed for Ag^+ and Hg^+ could be due to the inhibitors being delayed in physically contacting the NAHA enzyme in the fungi when compared to other types of biomass.
# [21] = test system: NAHA activity from all sources; test: NAHA activity assay, all sources; format: biochemical; conditions: 500 μM
# Description: as §1
compound,measurement,setting,value
"O=[N+]([O-])[O-].[Ag+] [Ag+, AgNO3]","NAHA activity, control without Ag+ = 100%",[1]; Ag+ 10 μM,35%
same,"NAHA activity, control without Ag+ = 100%",[1]; Ag+ 25 μM,33%
same,"NAHA activity, control without Ag+ = 100%",[1]; Ag+ 100 μM,25%
same,"NAHA activity, control without Ag+ = 100%",[1]; Ag+ 400 μM,19%
same,"NAHA activity, control without Ag+ = 100%",[2]; Ag+ 10 μM,69%
same,"NAHA activity, control without Ag+ = 100%",[2]; Ag+ 25 μM,55%
same,"NAHA activity, control without Ag+ = 100%",[2]; Ag+ 100 μM,19%
same,"NAHA activity, control without Ag+ = 100%",[2]; Ag+ 400 μM,17%
same,"NAHA activity, control without Ag+ = 100%",[3]; Ag+ 10 μM,96%
same,"NAHA activity, control without Ag+ = 100%",[3]; Ag+ 25 μM,69%
same,"NAHA activity, control without Ag+ = 100%",[3]; Ag+ 100 μM,6%
same,"NAHA activity, control without Ag+ = 100%",[3]; Ag+ 400 μM,3%
same,"NAHA activity, control without Ag+ = 100%",[4]; Ag+ 10 μM,67%
same,"NAHA activity, control without Ag+ = 100%",[4]; Ag+ 25 μM,65%
same,"NAHA activity, control without Ag+ = 100%",[4]; Ag+ 100 μM,63%
same,"NAHA activity, control without Ag+ = 100%",[4]; Ag+ 400 μM,46%
same,"NAHA activity, control without Ag+ = 100%",[5]; Ag+ 10 μM,46%
same,"NAHA activity, control without Ag+ = 100%",[5]; Ag+ 25 μM,23%
same,"NAHA activity, control without Ag+ = 100%",[5]; Ag+ 100 μM,9%
same,"NAHA activity, control without Ag+ = 100%",[5]; Ag+ 400 μM,8%
same,"NAHA activity, control without Ag+ = 100%",[6]; Ag+ 10 μM,3%
same,"NAHA activity, control without Ag+ = 100%",[6]; Ag+ 25 μM,2%
same,"NAHA activity, control without Ag+ = 100%",[6]; Ag+ 100 μM,1%
same,"NAHA activity, control without Ag+ = 100%",[6]; Ag+ 400 μM,0%
same,inhibition of NAHA activity,"[6]; pilot experiment, 10 μM, mite Lepidoglyphus",almost total inhibition
same,"NAHA activity, control without Ag+ = 100%",[7]; Ag+ 10 μM,41%
same,"NAHA activity, control without Ag+ = 100%",[7]; Ag+ 25 μM,22%
same,"NAHA activity, control without Ag+ = 100%",[7]; Ag+ 100 μM,6%
same,"NAHA activity, control without Ag+ = 100%",[7]; Ag+ 400 μM,8%
same,inhibition of NAHA activity,"[7]; pilot experiment, 10 μM, grass pollen",almost total inhibition
same,"NAHA activity, control without Ag+ = 100%",[8]; Ag+ 10 μM,80%
same,"NAHA activity, control without Ag+ = 100%",[8]; Ag+ 25 μM,57%
same,"NAHA activity, control without Ag+ = 100%",[8]; Ag+ 100 μM,13%
same,"NAHA activity, control without Ag+ = 100%",[8]; Ag+ 400 μM,6%
same,"NAHA activity, control without Ag+ = 100%",[9]; Ag+ 10 μM,91%
same,"NAHA activity, control without Ag+ = 100%",[9]; Ag+ 25 μM,74%
same,"NAHA activity, control without Ag+ = 100%",[9]; Ag+ 100 μM,18%
same,"NAHA activity, control without Ag+ = 100%",[9]; Ag+ 400 μM,11%
same,"NAHA activity, 0 μM Ag+ = 100%",[10]; Ag+ 10 μM,104%
same,"NAHA activity, 0 μM Ag+ = 100%",[10]; Ag+ 25 μM,108%
same,"NAHA activity, 0 μM Ag+ = 100%",[10]; Ag+ 100 μM,98%
same,"NAHA activity, 0 μM Ag+ = 100%",[10]; Ag+ 400 μM,91%
same,"NAHA activity, 0 μM Ag+ = 100%",[11]; Ag+ 10 μM,91%
same,"NAHA activity, 0 μM Ag+ = 100%",[11]; Ag+ 25 μM,103%
same,"NAHA activity, 0 μM Ag+ = 100%",[11]; Ag+ 100 μM,95%
same,"NAHA activity, 0 μM Ag+ = 100%",[11]; Ag+ 400 μM,87%
same,"NAHA activity, 0 μM Ag+ = 100%",[12]; Ag+ 10 μM,175%
same,"NAHA activity, 0 μM Ag+ = 100%",[12]; Ag+ 25 μM,143%
same,"NAHA activity, 0 μM Ag+ = 100%",[12]; Ag+ 100 μM,159%
same,"NAHA activity, 0 μM Ag+ = 100%",[12]; Ag+ 400 μM,132%
same,effect on the NAHA activity,"[12]; pilot experiment, 10 μM",no significant effect
same,"NAHA activity, 0 μM Ag+ = 100%",[13]; Ag+ 10 μM,98%
same,"NAHA activity, 0 μM Ag+ = 100%",[13]; Ag+ 25 μM,106%
same,"NAHA activity, 0 μM Ag+ = 100%",[13]; Ag+ 100 μM,87%
same,"NAHA activity, 0 μM Ag+ = 100%",[13]; Ag+ 400 μM,65%
same,"NAHA activity, 0 μM Ag+ = 100%",[14]; Ag+ 10 μM,212%
same,"NAHA activity, 0 μM Ag+ = 100%",[14]; Ag+ 25 μM,154%
same,"NAHA activity, 0 μM Ag+ = 100%",[14]; Ag+ 100 μM,137%
same,"NAHA activity, 0 μM Ag+ = 100%",[14]; Ag+ 400 μM,167%
same,"NAHA activity, 0 μM Ag+ = 100%",[15]; Ag+ 10 μM,107%
same,"NAHA activity, 0 μM Ag+ = 100%",[15]; Ag+ 25 μM,107%
same,"NAHA activity, 0 μM Ag+ = 100%",[15]; Ag+ 100 μM,110%
same,"NAHA activity, 0 μM Ag+ = 100%",[15]; Ag+ 400 μM,102%
same,"NAHA activity, 0 μM Ag+ = 100%",[16]; Ag+ 10 μM,88%
same,"NAHA activity, 0 μM Ag+ = 100%",[16]; Ag+ 25 μM,63%
same,"NAHA activity, 0 μM Ag+ = 100%",[16]; Ag+ 100 μM,114%
same,"NAHA activity, 0 μM Ag+ = 100%",[16]; Ag+ 400 μM,57%
same,"NAHA activity, 0 μM Ag+ = 100%",[17]; Ag+ 10 μM,97%
same,"NAHA activity, 0 μM Ag+ = 100%",[17]; Ag+ 25 μM,91%
same,"NAHA activity, 0 μM Ag+ = 100%",[17]; Ag+ 100 μM,83%
same,"NAHA activity, 0 μM Ag+ = 100%",[17]; Ag+ 400 μM,93%
same,"NAHA activity, 0 μM Ag+ = 100%",[18]; Ag+ 10 μM,89%
same,"NAHA activity, 0 μM Ag+ = 100%",[18]; Ag+ 25 μM,91%
same,"NAHA activity, 0 μM Ag+ = 100%",[18]; Ag+ 100 μM,96%
same,"NAHA activity, 0 μM Ag+ = 100%",[18]; Ag+ 400 μM,76%
same,effect on the NAHA activity,[19],no significant effect
same,effect on the NAHA activity,[20],no significant effect
same,"reduction of the non-fungal NAHA activity, on average",non-fungal NAHA activity; 100 μM in the assay substrate,82%
same,"NAHA activity retained, average of non-fungal sources, of the control",non-fungal NAHA activity; 400 μM,13%
same,reduction of the fungal NAHA activity,fungal NAHA activity; 100 μM in the assay substrate,zero to very low reduction
same,fungal NAHA activity retained,fungal NAHA activity; 400 μM,a high percentage
same,inhibition of the fungal NAHA activity,fungal NAHA activity; inhibitor added to the fungal culture prior to the enzyme assay,complete inhibition
[Cu+2] [Cu^2+],inhibiting effect on NAHA activity from all sources,[21],did not exhibit any or exhibited only very slight inhibiting effect
[Hg+] [Hg^+],inhibition of non-fungal NAHA activity,non-fungal NAHA activity; 10 μM,high inhibition
same,inhibition of fungal NAHA activity,fungal NAHA activity; 10 μM,less inhibition (but more than Ag^+)
